Tested on: 996289-038-R-J1-PDC complex spheroid viability
Assay: Anticancer human tumor 996289-038-R-J1-PDC patient-derived colon adenocarcinoma cell line growth inhibition [CLK]
Settings: for IC50: curve of first compound; for viability, T/C: stronger effect = lower value
In short: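 Patient-derived tumor cells grown as complex spheroids with HUVEC endothelial cells and mesenchymal stem cells, treated with drug combinations. Concentrations descend in half-log steps from near clinical Cmax, or from 10 microM if Cmax unknown.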

[1] = second compound 0.0316 µM, first compound 0.0316 µM
[2] = second compound 0.0316 µM, first compound 0.1 µM
[3] = second compound 0.0316 µM, first compound 0.316 µM
[4] = second compound 0.0316 µM, first compound 1 µM
[5] = second compound 0.0316 µM, first compound 3.16 µM
[6] = second compound 0.0316 µM, first compound 10 µM
[7] = second compound 0.1 µM, first compound 0.0316 µM
[8] = second compound 0.1 µM, first compound 0.1 µM
[9] = second compound 0.1 µM, first compound 0.316 µM
[10] = second compound 0.1 µM, first compound 1 µM
[11] = second compound 0.1 µM, first compound 3.16 µM
[12] = second compound 0.1 µM, first compound 10 µM
[13] = second compound 0.316 µM, first compound 0.0316 µM
[14] = second compound 0.316 µM, first compound 0.1 µM
[15] = second compound 0.316 µM, first compound 0.316 µM
[16] = second compound 0.316 µM, first compound 1 µM
[17] = second compound 0.316 µM, first compound 3.16 µM
[18] = second compound 0.316 µM, first compound 10 µM
[19] = second compound 1 µM, first compound 0.0316 µM
[20] = second compound 1 µM, first compound 0.1 µM
[21] = second compound 1 µM, first compound 0.316 µM
[22] = second compound 1 µM, first compound 1 µM
[23] = second compound 1 µM, first compound 3.16 µM
[24] = second compound 1 µM, first compound 10 µM
[25] = second compound 3.16 µM, first compound 0.0316 µM
[26] = second compound 3.16 µM, first compound 0.1 µM
[27] = second compound 3.16 µM, first compound 0.316 µM
[28] = second compound 3.16 µM, first compound 1 µM
[29] = second compound 3.16 µM, first compound 3.16 µM
[30] = second compound 3.16 µM, first compound 10 µM
[31] = second compound 10 µM, first compound 0.0316 µM
[32] = second compound 10 µM, first compound 0.1 µM
[33] = second compound 10 µM, first compound 0.316 µM
[34] = second compound 10 µM, first compound 1 µM
[35] = second compound 10 µM, first compound 3.16 µM
[36] = second compound 10 µM, first compound 10 µM
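Further: spheroids exposed to the agents for 7 days before readout.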

CC(=O)O[C@H]1C(=O)[C@@]2(C)[C@H]([C@H](OC(=O)c3ccccc3)[C@]3(O)C[C@H](OC(=O)[C@H](O)[C@@H](NC(=O)c4ccccc4)c4ccccc4)C(C)=C1C3(C)C)[C@]1(OC(C)=O)CO[C@@H]1C[C@@H]2O + CNC(=O)c1ccc(Nc2nc(OC3CCCC3)c3c(-c4ccc5nc(C)oc5c4)c[nH]c3n2)c(OC)c1
IC50 (second compound 0.0316 µM): > 10000 nM | IC50 (second compound 0.1 µM): > 10000 nM | IC50 (second compound 0.316 µM): > 10000 nM | IC50 (second compound 1 µM): > 10000 nM | IC50 (second compound 3.16 µM): > 10000 nM | IC50 (second compound 10 µM): > 10000 nM | viability, T/C [1]: 109% | viability, T/C [2]: 103% | viability, T/C [3]: 79.9% | viability, T/C [4]: 70.3% | viability, T/C [5]: 67.4% | viability, T/C [6]: 64.6% | viability, T/C [7]: 110% | viability, T/C [8]: 96% | viability, T/C [9]: 80% | viability, T/C [10]: 79.2% | viability, T/C [11]: 74.8% | viability, T/C [12]: 65.4% | viability, T/C [13]: 68.6% | viability, T/C [14]: 70.3% | viability, T/C [15]: 65.6% | viability, T/C [16]: 66.3% | viability, T/C [17]: 69.2% | viability, T/C [18]: 73.3% | viability, T/C [19]: 63.2% | viability, T/C [20]: 59% | viability, T/C [21]: 57.5% | viability, T/C [22]: 53.5% | viability, T/C [23]: 62.9% | viability, T/C [24]: 61.8% | viability, T/C [25]: 59.6% | viability, T/C [26]: 55% | viability, T/C [27]: 54% | viability, T/C [28]: 54.3% | viability, T/C [29]: 59% | viability, T/C [30]: 65.2% | viability, T/C [31]: 56.7% | viability, T/C [32]: 53.5% | viability, T/C [33]: 55.2% | viability, T/C [34]: 53.8% | viability, T/C [35]: 59.6% | viability, T/C [36]: 53.7%

CCc1c2c(nc3ccc(O)cc13)-c1cc3c(c(=O)n1C2)COC(=O)[C@]3(O)CC + CNC(=O)c1ccc(Nc2nc(OC3CCCC3)c3c(-c4ccc5nc(C)oc5c4)c[nH]c3n2)c(OC)c1
IC50 (second compound 0.0316 µM): 203 nM | IC50 (second compound 0.1 µM): 239 nM | IC50 (second compound 0.316 µM): 72.3 nM | IC50 (second compound 1 µM): 15.8 nM | IC50 (second compound 3.16 µM): 8.28 nM | IC50 (second compound 10 µM): 8.57 nM | viability, T/C (second compound 0.0316 µM, first compound 0.00316 µM): 115% | viability, T/C (second compound 0.0316 µM, first compound 0.01 µM): 89.4% | viability, T/C [1]: 63.3% | viability, T/C [2]: 61.6% | viability, T/C [3]: 48.8% | viability, T/C [4]: 29.3% | viability, T/C (second compound 0.1 µM, first compound 0.00316 µM): 110% | viability, T/C (second compound 0.1 µM, first compound 0.01 µM): 96.2% | viability, T/C [7]: 69.9% | viability, T/C [8]: 63.3% | viability, T/C [9]: 49% | viability, T/C [10]: 31.6% | viability, T/C (second compound 0.316 µM, first compound 0.00316 µM): 77.4% | viability, T/C (second compound 0.316 µM, first compound 0.01 µM): 68.1% | viability, T/C [13]: 56.2% | viability, T/C [14]: 48.1% | viability, T/C [15]: 35.6% | viability, T/C [16]: 21.9% | viability, T/C (second compound 1 µM, first compound 0.00316 µM): 60.8% | viability, T/C (second compound 1 µM, first compound 0.01 µM): 52.1% | viability, T/C [19]: 46.6% | viability, T/C [20]: 33.1% | viability, T/C [21]: 25.1% | viability, T/C [22]: 13.5% | viability, T/C (second compound 3.16 µM, first compound 0.00316 µM): 55.5% | viability, T/C (second compound 3.16 µM, first compound 0.01 µM): 50.2% | viability, T/C [25]: 39% | viability, T/C [26]: 31.2% | viability, T/C [27]: 22% | viability, T/C [28]: 12.8% | viability, T/C (second compound 10 µM, first compound 0.00316 µM): 54.6% | viability, T/C (second compound 10 µM, first compound 0.01 µM): 52% | viability, T/C [31]: 38.9% | viability, T/C [32]: 32.8% | viability, T/C [33]: 23.7% | viability, T/C [34]: 10.8%

COc1cccc2c1C(=O)c1c(O)c3c(c(O)c1C2=O)CC(O)(C(=O)CO)CC3OC1CC(N)C(O)C(C)O1 (stereo not given) + CNC(=O)c1ccc(Nc2nc(OC3CCCC3)c3c(-c4ccc5nc(C)oc5c4)c[nH]c3n2)c(OC)c1
IC50 (second compound 0.0316 µM): 4460 nM | IC50 (second compound 0.1 µM): 2150 nM | IC50 (second compound 0.316 µM): 983 nM | IC50 (second compound 1 µM): 173 nM | IC50 (second compound 3.16 µM): < 31.6 nM | IC50 (second compound 10 µM): 66.9 nM | viability, T/C [1]: 119% | viability, T/C [2]: 98.7% | viability, T/C [3]: 87.5% | viability, T/C [4]: 68.8% | viability, T/C [5]: 59.9% | viability, T/C [6]: 36% | viability, T/C [7]: 104% | viability, T/C [8]: 110% | viability, T/C [9]: 79.7% | viability, T/C [10]: 59.9% | viability, T/C [11]: 50% | viability, T/C [12]: 28.7% | viability, T/C [13]: 75.3% | viability, T/C [14]: 73.4% | viability, T/C [15]: 63.1% | viability, T/C [16]: 51% | viability, T/C [17]: 31% | viability, T/C [18]: 18.5% | viability, T/C [19]: 64.8% | viability, T/C [20]: 56.6% | viability, T/C [21]: 42.2% | viability, T/C [22]: 28.1% | viability, T/C [23]: 14.3% | viability, T/C [24]: 10.3% | viability, T/C [25]: 49.3% | viability, T/C [26]: 48.2% | viability, T/C [27]: 38.5% | viability, T/C [28]: 19.5% | viability, T/C [29]: 10.3% | viability, T/C [30]: 7.76% | viability, T/C [31]: 53.1% | viability, T/C [32]: 47.6% | viability, T/C [33]: 36.6% | viability, T/C [34]: 18.1% | viability, T/C [35]: 8.69% | viability, T/C [36]: 7.86%

Nc1ccn(C2OC(CO)C(O)C2(F)F)c(=O)n1 (stereo not given) + CNC(=O)c1ccc(Nc2nc(OC3CCCC3)c3c(-c4ccc5nc(C)oc5c4)c[nH]c3n2)c(OC)c1
IC50 (second compound 0.0316 µM): > 10000 nM | IC50 (second compound 0.1 µM): > 10000 nM | IC50 (second compound 0.316 µM): > 10000 nM | IC50 (second compound 1 µM): 1230 nM | IC50 (second compound 3.16 µM): 674 nM | IC50 (second compound 10 µM): 639 nM | viability, T/C [1]: 93.1% | viability, T/C [2]: 82.7% | viability, T/C [3]: 67.1% | viability, T/C [4]: 70% | viability, T/C [5]: 65.1% | viability, T/C [6]: 56.4% | viability, T/C [7]: 108% | viability, T/C [8]: 85.3% | viability, T/C [9]: 67.9% | viability, T/C [10]: 68% | viability, T/C [11]: 66.7% | viability, T/C [12]: 54.9% | viability, T/C [13]: 79.8% | viability, T/C [14]: 70.5% | viability, T/C [15]: 65.4% | viability, T/C [16]: 56.1% | viability, T/C [17]: 55.3% | viability, T/C [18]: 52.2% | viability, T/C [19]: 68.8% | viability, T/C [20]: 63.4% | viability, T/C [21]: 54.6% | viability, T/C [22]: 50% | viability, T/C [23]: 48.9% | viability, T/C [24]: 41.4% | viability, T/C [25]: 65.3% | viability, T/C [26]: 54.2% | viability, T/C [27]: 52.6% | viability, T/C [28]: 49.3% | viability, T/C [29]: 47.2% | viability, T/C [30]: 36.9% | viability, T/C [31]: 61.5% | viability, T/C [32]: 57.6% | viability, T/C [33]: 48.4% | viability, T/C [34]: 49.4% | viability, T/C [35]: 46.9% | viability, T/C [36]: 35.2%

O=c1[nH]cc(F)c(=O)[nH]1 + CNC(=O)c1ccc(Nc2nc(OC3CCCC3)c3c(-c4ccc5nc(C)oc5c4)c[nH]c3n2)c(OC)c1
IC50 (second compound 0.0316 µM): > 10000 nM | IC50 (second compound 0.1 µM): > 10000 nM | IC50 (second compound 0.316 µM): > 10000 nM | IC50 (second compound 1 µM): 3470 nM | IC50 (second compound 3.16 µM): 3470 nM | IC50 (second compound 10 µM): 1600 nM | viability, T/C [1]: 108% | viability, T/C [2]: 111% | viability, T/C [3]: 87.5% | viability, T/C [4]: 86.6% | viability, T/C [5]: 86.1% | viability, T/C [6]: 77.8% | viability, T/C [7]: 122% | viability, T/C [8]: 105% | viability, T/C [9]: 86.1% | viability, T/C [10]: 82.1% | viability, T/C [11]: 81.3% | viability, T/C [12]: 74.5% | viability, T/C [13]: 80.8% | viability, T/C [14]: 77% | viability, T/C [15]: 72.5% | viability, T/C [16]: 69.6% | viability, T/C [17]: 63.8% | viability, T/C [18]: 59.1% | viability, T/C [19]: 62.9% | viability, T/C [20]: 61.2% | viability, T/C [21]: 59.5% | viability, T/C [22]: 53.6% | viability, T/C [23]: 50.3% | viability, T/C [24]: 45.5% | viability, T/C [25]: 61.9% | viability, T/C [26]: 60% | viability, T/C [27]: 55.8% | viability, T/C [28]: 51% | viability, T/C [29]: 53.3% | viability, T/C [30]: 46.1% | viability, T/C [31]: 60.4% | viability, T/C [32]: 53.9% | viability, T/C [33]: 59.2% | viability, T/C [34]: 48% | viability, T/C [35]: 47.5% | viability, T/C [36]: 46.7%
